Experiments:
[1] = molecular target: T1, Serine/threonine-protein kinase TAO2 (Homo sapiens) (UniProt Q9UL54); assay: Selectivity interaction (KinomeScan (DiscoverX)) EUB0000229b TAOK2; details: at 10 µM
T1 sequence (whole entry): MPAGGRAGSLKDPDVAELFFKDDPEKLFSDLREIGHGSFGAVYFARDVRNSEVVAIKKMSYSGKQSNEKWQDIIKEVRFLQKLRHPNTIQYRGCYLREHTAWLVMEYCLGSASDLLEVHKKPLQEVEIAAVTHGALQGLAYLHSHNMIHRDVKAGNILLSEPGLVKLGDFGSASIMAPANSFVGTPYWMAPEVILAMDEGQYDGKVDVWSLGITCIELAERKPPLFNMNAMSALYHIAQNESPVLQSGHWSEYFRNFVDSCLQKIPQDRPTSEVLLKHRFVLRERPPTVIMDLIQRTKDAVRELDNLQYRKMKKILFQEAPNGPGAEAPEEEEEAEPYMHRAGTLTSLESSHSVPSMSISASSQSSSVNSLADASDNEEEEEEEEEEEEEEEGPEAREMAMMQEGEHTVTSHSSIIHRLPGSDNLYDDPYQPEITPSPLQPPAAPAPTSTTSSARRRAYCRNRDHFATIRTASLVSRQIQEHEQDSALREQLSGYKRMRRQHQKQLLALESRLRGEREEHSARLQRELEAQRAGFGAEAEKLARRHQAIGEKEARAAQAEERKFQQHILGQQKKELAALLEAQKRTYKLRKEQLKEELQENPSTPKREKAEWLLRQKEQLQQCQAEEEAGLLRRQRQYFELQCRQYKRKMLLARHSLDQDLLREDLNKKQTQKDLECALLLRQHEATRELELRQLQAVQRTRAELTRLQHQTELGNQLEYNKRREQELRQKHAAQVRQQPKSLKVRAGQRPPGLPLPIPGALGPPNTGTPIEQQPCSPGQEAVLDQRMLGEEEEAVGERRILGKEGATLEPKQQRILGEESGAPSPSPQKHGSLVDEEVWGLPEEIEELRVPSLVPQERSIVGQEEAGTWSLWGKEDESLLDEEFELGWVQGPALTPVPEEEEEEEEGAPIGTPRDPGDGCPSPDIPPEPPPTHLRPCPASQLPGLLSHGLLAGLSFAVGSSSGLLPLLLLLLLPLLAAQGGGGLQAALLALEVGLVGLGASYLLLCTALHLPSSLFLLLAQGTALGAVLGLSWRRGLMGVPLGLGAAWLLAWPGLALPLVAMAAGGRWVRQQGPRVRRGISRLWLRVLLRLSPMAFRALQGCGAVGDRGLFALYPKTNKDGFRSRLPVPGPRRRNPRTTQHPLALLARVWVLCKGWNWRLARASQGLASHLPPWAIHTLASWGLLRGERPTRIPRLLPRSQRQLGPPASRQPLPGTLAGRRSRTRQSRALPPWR

[2] = molecular target: Wee1-like protein kinase (Homo sapiens) (UniProt P30291); assay: Selectivity interaction (KinomeScan (DiscoverX)) EUB0000045b WEE1
[3] = molecular target: T2, Phosphatidylinositol 5-phosphate 4-kinase type-2 gamma (Homo sapiens) (UniProt Q8TBX8); assay: Selectivity interaction (KinomeScan (DiscoverX)) EUB0000045b PIP4K2C
T2 sequence (whole entry): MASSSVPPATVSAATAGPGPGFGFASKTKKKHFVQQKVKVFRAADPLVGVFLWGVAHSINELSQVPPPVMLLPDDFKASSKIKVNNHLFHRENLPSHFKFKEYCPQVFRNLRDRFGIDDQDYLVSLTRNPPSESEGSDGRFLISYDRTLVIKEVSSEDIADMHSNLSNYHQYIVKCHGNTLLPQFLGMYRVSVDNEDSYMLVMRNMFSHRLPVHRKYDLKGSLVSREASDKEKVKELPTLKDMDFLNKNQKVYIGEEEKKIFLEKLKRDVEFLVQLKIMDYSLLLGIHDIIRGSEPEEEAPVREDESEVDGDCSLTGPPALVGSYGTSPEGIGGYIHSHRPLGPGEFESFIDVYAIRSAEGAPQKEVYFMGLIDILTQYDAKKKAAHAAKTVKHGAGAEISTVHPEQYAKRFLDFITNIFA

[4] = molecular target: Interleukin-1 receptor-associated kinase 1 (Homo sapiens) (UniProt P51617); assay: Selectivity interaction (KinomeScan (DiscoverX)) EUB0001079a IRAK1; details: at 1 µM
[5] = molecular target: T3, Activin receptor type-1B (Homo sapiens) (UniProt P36896); assay: Selectivity interaction (KinomeScan (DiscoverX)) EUB0001079a ACVR1B; details: at 1 µM
T3 sequence (whole entry): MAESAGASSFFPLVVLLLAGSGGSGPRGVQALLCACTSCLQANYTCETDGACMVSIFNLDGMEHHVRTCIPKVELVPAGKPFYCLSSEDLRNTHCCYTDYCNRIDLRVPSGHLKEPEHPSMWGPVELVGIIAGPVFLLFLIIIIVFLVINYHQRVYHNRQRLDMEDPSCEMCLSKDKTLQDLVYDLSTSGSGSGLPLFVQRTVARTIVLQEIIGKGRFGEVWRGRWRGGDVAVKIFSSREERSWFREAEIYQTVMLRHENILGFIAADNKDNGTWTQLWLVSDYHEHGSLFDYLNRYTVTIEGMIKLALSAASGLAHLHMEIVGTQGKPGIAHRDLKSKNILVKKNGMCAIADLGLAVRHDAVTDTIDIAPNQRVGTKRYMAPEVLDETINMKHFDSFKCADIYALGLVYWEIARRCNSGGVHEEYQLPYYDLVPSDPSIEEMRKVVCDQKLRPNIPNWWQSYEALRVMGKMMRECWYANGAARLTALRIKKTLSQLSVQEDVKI

[6] = tested on: RAF proto-oncogene serine/threonine-protein kinase (Homo sapiens), P04049 [Y340D,Y341D]; assay: Selectivity interaction (Kinase panel (Z-LYTE Assay)) EUB0001632a RAF1; details: at 10 µM
[7] = tested on: Epidermal growth factor receptor (Homo sapiens), P00533 [UNDEFINED MUTATION]; assay: Selectivity interaction (KinomeScan (DiscoverX)) EUB0000666a EGFR; details: at 10 µM
[8] = molecular target: Histone-lysine N-methyltransferase SUV39H2 (Homo sapiens) (UniProt Q9H5I1); assay: Selectivity interaction (Transferase panel (protein, RNA, and DNA methyltransferases. and EP300 (acetyltransferase))) EUB0000270b SUV39H2
[9] = molecular target: Serine/threonine-protein kinase Chk1 (Homo sapiens, UniProt O14757); assay: Selectivity interaction (Enzyme panel (AstraZeneca, AlphaScreen, functional assay)) EUB0000621a CHEK1
[10] = molecular target: Serine/threonine-protein kinase MARK2 (Homo sapiens) (UniProt Q7KZI7); assay: Selectivity interaction (SelectScreen profiling (Invitrogen)) EUB0000607a MARK2; details: at 2 µM
Chain of Serine/threonine-protein kinase MARK2 (Homo sapiens) (Q7KZI7 whole entry): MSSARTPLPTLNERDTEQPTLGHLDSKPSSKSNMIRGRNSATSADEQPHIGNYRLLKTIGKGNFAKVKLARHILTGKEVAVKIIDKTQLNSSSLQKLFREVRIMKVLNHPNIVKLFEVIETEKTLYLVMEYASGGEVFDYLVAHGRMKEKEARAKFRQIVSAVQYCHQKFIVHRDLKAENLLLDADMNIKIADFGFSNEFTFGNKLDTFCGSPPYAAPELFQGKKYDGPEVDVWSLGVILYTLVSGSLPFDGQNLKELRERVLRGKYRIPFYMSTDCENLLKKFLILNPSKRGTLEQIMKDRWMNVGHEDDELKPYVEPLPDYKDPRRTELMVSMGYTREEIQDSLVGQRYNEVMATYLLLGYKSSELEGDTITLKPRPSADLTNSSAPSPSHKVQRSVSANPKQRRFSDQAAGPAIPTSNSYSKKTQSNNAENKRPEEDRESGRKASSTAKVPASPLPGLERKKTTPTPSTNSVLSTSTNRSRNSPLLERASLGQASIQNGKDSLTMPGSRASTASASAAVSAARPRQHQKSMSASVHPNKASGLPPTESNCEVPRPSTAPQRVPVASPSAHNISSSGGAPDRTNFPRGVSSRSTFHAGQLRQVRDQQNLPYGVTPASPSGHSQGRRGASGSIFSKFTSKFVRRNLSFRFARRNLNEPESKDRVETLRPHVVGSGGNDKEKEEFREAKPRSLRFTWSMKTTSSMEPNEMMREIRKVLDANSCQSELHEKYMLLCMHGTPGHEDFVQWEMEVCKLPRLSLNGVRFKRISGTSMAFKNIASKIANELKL

Chain of Wee1-like protein kinase (Homo sapiens) (P30291 whole entry, looked up): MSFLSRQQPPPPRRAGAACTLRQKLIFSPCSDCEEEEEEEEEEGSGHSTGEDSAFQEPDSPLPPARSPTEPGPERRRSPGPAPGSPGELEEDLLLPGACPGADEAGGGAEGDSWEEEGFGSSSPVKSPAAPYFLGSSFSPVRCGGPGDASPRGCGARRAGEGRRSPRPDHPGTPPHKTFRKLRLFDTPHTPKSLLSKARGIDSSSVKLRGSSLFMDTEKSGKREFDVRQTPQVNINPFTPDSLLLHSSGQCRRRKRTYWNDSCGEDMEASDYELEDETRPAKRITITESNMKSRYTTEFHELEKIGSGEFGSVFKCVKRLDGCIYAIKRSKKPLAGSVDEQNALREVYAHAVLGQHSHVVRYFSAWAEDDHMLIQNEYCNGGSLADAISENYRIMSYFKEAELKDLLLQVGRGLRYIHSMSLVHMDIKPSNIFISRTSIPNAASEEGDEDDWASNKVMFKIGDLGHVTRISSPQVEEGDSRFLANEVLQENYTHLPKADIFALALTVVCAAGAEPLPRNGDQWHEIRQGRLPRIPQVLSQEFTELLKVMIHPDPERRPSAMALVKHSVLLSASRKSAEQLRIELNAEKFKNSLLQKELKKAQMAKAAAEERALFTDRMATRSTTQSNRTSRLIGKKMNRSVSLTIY
Chain of Histone-lysine N-methyltransferase SUV39H2 (Homo sapiens) (Q9H5I1 whole entry): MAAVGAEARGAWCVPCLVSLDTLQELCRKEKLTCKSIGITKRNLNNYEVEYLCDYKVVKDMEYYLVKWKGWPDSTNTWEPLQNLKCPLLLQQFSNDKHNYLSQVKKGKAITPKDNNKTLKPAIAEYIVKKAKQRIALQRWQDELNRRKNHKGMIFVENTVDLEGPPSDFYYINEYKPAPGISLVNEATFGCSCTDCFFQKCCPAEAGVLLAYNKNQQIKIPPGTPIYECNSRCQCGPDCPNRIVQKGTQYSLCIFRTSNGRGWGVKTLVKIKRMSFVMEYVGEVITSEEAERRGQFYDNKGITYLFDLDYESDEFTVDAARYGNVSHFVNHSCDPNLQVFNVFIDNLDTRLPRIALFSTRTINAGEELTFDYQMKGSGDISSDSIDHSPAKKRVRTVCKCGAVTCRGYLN
Chain of Epidermal growth factor receptor (Homo sapiens), P00533 [UNDEFINED MUTATION] (P00533 whole entry, looked up, change not shown): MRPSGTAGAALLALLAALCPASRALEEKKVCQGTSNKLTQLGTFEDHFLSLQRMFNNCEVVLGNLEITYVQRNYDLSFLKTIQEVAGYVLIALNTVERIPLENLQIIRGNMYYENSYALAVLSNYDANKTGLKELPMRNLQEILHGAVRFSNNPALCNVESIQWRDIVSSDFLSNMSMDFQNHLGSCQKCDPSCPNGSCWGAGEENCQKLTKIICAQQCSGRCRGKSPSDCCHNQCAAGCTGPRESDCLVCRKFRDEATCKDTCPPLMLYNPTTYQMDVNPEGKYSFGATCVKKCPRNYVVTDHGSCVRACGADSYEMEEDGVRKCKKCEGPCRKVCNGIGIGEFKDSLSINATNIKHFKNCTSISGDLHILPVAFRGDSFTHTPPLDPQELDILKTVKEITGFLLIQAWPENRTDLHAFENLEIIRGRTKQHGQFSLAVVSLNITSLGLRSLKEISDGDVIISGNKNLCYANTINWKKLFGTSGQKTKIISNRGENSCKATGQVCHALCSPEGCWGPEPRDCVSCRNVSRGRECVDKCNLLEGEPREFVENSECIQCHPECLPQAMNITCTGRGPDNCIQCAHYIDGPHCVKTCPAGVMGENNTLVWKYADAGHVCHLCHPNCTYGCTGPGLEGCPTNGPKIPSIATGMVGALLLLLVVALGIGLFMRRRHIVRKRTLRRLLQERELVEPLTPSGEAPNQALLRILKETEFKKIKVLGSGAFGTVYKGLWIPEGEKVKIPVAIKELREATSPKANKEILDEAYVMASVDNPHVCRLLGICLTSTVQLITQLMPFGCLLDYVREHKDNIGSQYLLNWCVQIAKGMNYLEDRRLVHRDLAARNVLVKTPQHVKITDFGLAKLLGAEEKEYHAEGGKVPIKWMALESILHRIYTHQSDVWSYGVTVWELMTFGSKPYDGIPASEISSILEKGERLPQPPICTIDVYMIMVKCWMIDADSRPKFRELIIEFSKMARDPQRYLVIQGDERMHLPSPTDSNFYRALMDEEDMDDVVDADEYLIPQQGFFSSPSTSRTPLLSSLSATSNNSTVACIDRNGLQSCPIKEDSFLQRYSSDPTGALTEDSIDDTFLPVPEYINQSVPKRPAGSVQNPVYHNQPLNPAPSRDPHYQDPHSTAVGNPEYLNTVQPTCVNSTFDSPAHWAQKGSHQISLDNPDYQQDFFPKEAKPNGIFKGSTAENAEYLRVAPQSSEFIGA
Chain of Interleukin-1 receptor-associated kinase 1 (Homo sapiens) (P51617 whole entry, looked up): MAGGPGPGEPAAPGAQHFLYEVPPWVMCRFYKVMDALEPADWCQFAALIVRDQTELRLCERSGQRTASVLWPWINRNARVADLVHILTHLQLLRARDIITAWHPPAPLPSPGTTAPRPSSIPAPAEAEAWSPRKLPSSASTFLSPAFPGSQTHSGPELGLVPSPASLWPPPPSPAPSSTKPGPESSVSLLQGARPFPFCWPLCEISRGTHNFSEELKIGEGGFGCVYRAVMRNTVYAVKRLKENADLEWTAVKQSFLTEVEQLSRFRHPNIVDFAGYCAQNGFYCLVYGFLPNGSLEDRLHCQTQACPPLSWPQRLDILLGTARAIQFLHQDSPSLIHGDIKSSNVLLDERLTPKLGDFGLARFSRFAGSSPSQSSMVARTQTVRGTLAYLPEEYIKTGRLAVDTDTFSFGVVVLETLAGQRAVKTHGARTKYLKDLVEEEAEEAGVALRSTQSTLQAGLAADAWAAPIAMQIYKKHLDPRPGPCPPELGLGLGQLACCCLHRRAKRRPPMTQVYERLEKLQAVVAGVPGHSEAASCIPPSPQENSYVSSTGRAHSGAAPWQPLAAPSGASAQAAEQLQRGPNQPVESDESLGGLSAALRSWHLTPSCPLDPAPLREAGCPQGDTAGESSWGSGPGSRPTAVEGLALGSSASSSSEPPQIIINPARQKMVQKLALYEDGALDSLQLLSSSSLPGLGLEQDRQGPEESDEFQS
Chain of RAF proto-oncogene serine/threonine-protein kinase (Homo sapiens), P04049 [Y340D,Y341D] (P04049 whole entry Y340D/Y341D): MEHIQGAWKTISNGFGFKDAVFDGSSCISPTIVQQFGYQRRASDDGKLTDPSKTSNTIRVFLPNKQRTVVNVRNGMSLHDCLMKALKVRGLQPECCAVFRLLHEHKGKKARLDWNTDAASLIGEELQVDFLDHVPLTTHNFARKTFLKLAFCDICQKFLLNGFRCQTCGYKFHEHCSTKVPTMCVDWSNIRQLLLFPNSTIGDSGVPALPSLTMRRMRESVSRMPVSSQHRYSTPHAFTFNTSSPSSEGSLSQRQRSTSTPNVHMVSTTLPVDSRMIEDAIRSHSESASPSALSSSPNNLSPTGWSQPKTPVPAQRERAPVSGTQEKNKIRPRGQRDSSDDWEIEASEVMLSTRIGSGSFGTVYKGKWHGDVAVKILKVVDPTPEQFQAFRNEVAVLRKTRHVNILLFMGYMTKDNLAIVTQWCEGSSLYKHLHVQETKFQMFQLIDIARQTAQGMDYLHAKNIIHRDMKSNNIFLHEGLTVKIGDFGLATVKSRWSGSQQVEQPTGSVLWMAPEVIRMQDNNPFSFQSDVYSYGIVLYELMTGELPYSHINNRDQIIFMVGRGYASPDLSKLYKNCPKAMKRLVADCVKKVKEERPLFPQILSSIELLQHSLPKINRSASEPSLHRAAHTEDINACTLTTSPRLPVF
Chain of Serine/threonine-protein kinase Chk1 (O14757 whole entry): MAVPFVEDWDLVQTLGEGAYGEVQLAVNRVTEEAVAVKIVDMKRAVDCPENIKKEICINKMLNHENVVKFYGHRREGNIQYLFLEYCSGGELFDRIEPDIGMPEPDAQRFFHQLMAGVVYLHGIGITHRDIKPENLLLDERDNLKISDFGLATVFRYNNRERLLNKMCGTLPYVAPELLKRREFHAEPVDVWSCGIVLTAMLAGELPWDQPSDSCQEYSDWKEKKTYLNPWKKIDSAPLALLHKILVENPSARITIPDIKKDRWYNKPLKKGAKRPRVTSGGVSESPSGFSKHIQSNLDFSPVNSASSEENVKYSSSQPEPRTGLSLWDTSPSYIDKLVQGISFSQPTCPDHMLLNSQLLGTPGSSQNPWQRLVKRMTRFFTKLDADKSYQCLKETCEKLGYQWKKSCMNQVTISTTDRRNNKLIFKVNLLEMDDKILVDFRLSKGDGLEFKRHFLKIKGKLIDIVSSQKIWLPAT

## COc1cc(N(C)c2ccnc3ccc(C(F)(F)F)cc23)cc(OC)c1OC
[1]
  % binding: 80%

## C=CC(=O)Nc1cc(-n2c(=O)ccc3cnc4ccc(-c5ccc(NS(C)(=O)=O)cc5)cc4c32)ccc1C
[2]; at 1 µM
  % of control: 100%
[2]; at 10 µM
  % of control: 92%
[3]; at 1 µM
  % of control: 5.6%
[3]; at 10 µM
  % of control: 3.9%

## Nc1cnc(N2CCc3cc(S(=O)(=O)Nc4c(F)cc(Cl)cc4F)cc(N4CCCC4=O)c32)nc1 [TP-020n]
[4]
  % of control: 100%
[5]
  % of control: 96%

## Cn1cc(-n2cnc3c(NCc4nc5cc(Cl)c(Cl)cc5[nH]4)nc(N4CCOCC4)nc32)cn1
[6]
  % of control: -1.53%

## O=C(NOC[C@H](O)CO)c1ccc(F)c(F)c1Nc1ccc(I)cc1F
[7]
  % of control: 59%

## Cc1cc(CN)cc(C)c1-c1ncn(C)c1-c1cncn1C
[8]; at 1 µM
  % activity: > 90%
[8]; at 10 µM
  % activity: > 80%

## Cc1cc([C@@H](C)Nc2ccccc2C(=O)O)c2nc(N3CCOCC3)cc(=O)n2c1 [AZD-6482]
[9]
  IC50: > 1000 µM

## CNC(=O)Nc1ccc(-c2nc(N3CC4CCC(C3)O4)c3cnn(C4CCC5(CC4)OCCO5)c3n2)cc1
[10]
  % of inhibition: 12%

Source: ChEMBL document CHEMBL5465560, “Selectivity Literature for EUbOPEN Chemogenomic Library” (2024)
